Source: patent publication US20190134005A1 (BioMarin Pharmaceutical Inc., priority 2016, published 2019)
Where two headings read alike, the source gives them in different places.

Target: T1, human CGT (Homo sapiens, UniProt Q16880)
T1 sequence (Q16880 21-541): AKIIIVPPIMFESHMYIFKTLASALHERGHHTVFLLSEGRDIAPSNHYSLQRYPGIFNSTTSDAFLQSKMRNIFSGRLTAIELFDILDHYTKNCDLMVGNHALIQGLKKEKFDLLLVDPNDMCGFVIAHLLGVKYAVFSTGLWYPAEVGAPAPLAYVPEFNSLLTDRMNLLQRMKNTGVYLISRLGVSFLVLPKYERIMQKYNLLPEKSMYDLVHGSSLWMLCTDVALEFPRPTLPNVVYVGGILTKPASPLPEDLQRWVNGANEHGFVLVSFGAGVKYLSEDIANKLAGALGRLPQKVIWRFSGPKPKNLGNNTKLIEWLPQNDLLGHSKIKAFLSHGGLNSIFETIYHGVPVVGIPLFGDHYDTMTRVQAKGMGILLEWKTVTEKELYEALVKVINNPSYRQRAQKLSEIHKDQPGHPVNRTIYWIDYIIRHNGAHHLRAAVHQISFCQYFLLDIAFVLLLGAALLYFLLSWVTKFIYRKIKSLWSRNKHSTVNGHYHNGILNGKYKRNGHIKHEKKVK
Assay: Assay 1: CGT Enzymatic Assay (RapidFire/MS/MS, 0.01% Tween 80)
Type: biochemical
Conditions: Table 1, Compounds of Formula (I) and Formula (II), CGT enzymatic assay, read-out: IC50

[1] = C6-NBD-dihydro-galactosylceramide readout

Row | Structure (SMILES) | IC50 [µM] | IC50 [1] [µM]
1 | CCC1(O)[C@@H](c2ccccc2)N(c2ccc(Br)cc2)C(=O)N1c1ccc(Br)cc1 (some centres unmarked) [Example 45-2] | 10 to 50 | 
2 | CC1(C)N(c2ccc(C#N)cc2)C(=O)N(c2ccc(Cl)cc2)C1(O)c1cccc(OC(F)(F)F)c1 (centres unmarked) [Example 322, 4-(3-(4-chlorophenyl)-4-hydroxy-5,5-dimethyl-2-oxo-4-(3-(trifluoromethoxy)phenyl)imidazolidin-1-yl)benzonitrile] |  | < 1
3 | O=C1N(c2ccc(Br)cc2)C(=O)C(O)(C2CCOCC2)N1c1ccc(Br)cc1 (centres unmarked) [Example 207, 1,3-bis(4-bromophenyl)-5-hydroxy-5-(tetrahydro-2H-pyran-4-yl)imidazolidine-2,4-dione] | 10 to 50 | 
4 | COc1ccc(N2C(=O)N(c3ccc(OC)cc3)C(O)(c3ccccc3)C2=O)cc1 (centres unmarked) [Example 160, 5-hydroxy-1,3-bis(4-methoxyphenyl)-5-phenylimidazolidine-2,4-dione] | > 50 | 
5 | COc1cccc(C2(O)C(=O)N(c3ccc(Br)cc3)C(=O)N2c2ccc(Br)cc2)c1 (centres unmarked) [Example 179, 1,3-bis(4-bromophenyl)-5-hydroxy-5-(3-methoxyphenyl)imidazolidine-2,4-dione] | 10 to 50 | 
6 | CC[C@]1(C)C(c2cccc(OC(F)(F)F)c2)N(c2ccc(C#N)cc2)C(=O)N1c1ccc(C#N)cc1 (stereo partly drawn) [Example 51-1, 4,4′-((4R)-4-ethyl-4-methyl-2-oxo-5-(3-(trifluoromethoxy)phenyl)imidazolidine-1,3-diyl)dibenzonitrile] | 1 to 10 | 
7 | CC[C@@]1(C)N(c2ccc(Cl)cc2)C(=O)N(c2ccc(Cl)cc2)C1(O)c1cccc(C#N)c1 (single isomer, unassigned) [Example 185-1] | 10 to 50 | 
8 | COCC1(C)N(c2ccc(Cl)cc2)C(=O)N(c2ccc(Cl)cc2)C1(O)c1cccc(C#N)c1 (centres unmarked) [Compound 297, 3-(1,3-bis(4-chlorophenyl)-4-hydroxy-5-(methoxymethyl)-5-methyl-2-oxoimidazolidin-4-yl)benzonitrile] |  | < 1
9 | Cc1ccccc1C1(O)CN(c2ccc(Br)cc2)C(=O)N1c1ccc(Br)cc1 (centres unmarked) [Example 14, 1,3-bis(4-bromophenyl)-4-hydroxy-4-(o-tolyl)imidazolidin-2-one] | > 50 | 
10 | O=C1N(c2ccc(Cl)cc2)C2(CC(F)(F)C2)C(O)(c2cccc(OC(F)(F)F)c2)N1c1ccc(Cl)cc1 (centres unmarked) [Compound 304, 5,7-bis(4-chlorophenyl)-2,2-difluoro-8-hydroxy-8-(3-(trifluoromethoxy)phenyl)-5,7-diazaspiro[3.4]octan-6-one] |  | < 1
11 | CC1(C)N(c2ccc(Cl)cc2)C(=O)N(c2ccc(C#N)cc2)C1(O)c1cccc(OC(F)(F)F)c1 (centres unmarked) [Compound 273, 4-(3-(4-chlorophenyl)-5-hydroxy-4,4-dimethyl-2-oxo-5-(3-(trifluoromethoxy)phenyl)imidazolidin-1-yl)benzonitrile] |  | < 1
12 | O=C1N(c2ccc(Br)cc2)CC(O)(c2nc3ccccc3s2)N1c1ccc(Br)cc1 (centres unmarked) [Example 10, 4-(benzo[d]thiazol-2-yl)-1,3-bis(4-bromophenyl)-4-hydroxyimidazolidin-2-one] | > 50 | 
13 | COc1cccc(C2(O)CN(c3ccc(Br)cc3)C(=O)N2c2ccc(Br)cc2)c1 (centres unmarked) [Example 30, 1,3-bis(4-bromophenyl)-4-hydroxy-4-(3-methoxyphenyl)imidazolidin-2-one] | 1 to 10 | 
14 | CC(=O)c1cccc(-c2c(C)n(-c3ccc(Cl)cc3)c(=O)n2-c2ccc(Cl)cc2)c1 [Compound 253, 4-(3-acetylphenyl)-1,3-bis(4-chlorophenyl)-5-methyl-1,3-dihydro-2H-imidazol-2-one] | 1 to 10 | 
15 | C[C@@]1(C(F)(F)F)N(c2ccc(Cl)cc2)C(=O)N(c2ccc(Cl)cc2)C1(O)c1cc(C#N)cc(C#N)c1 (stereo partly drawn) [Example 331-2, 5-((5R)-1,3-bis(4-chlorophenyl)-4-hydroxy-5-methyl-2-oxo-5-(trifluoromethyl)imidazolidin-4-yl)isophthalonitrile] |  | < 1
16 | Cc1ccc(C2(O)C(=O)N(c3ccc(Br)cc3)C(=O)N2c2ccc(Br)cc2)cc1 (centres unmarked) [Example 200, 1,3-bis(4-bromophenyl)-5-hydroxy-5-(p-tolyl)imidazolidine-2,4-dione] | 50 to 100 | 
17 | CCC1(O)C(=O)N(c2ccc(Br)cc2)C(=O)N1c1ccc(Br)cc1 (centres unmarked) [Compound 143, 1,3-bis(4-bromophenyl)-5-ethyl-5-hydroxyimidazolidine-2,4-dione] | 10 to 50 | 
18 | Cc1cccc(C2(O)CN(c3ccc(Br)cc3)C(=O)N2c2ccc(Br)cc2)c1 (centres unmarked) [Example 16, 1,3-bis(4-bromophenyl)-4-hydroxy-4-(m-tolyl)imidazolidin-2-one] | 1 to 10 | 

Results, then the compound that gave them:

Row | IC50 [µM] | IC50 [1] [µM] | Structure (SMILES)
19 | 1 to 10 |  | CC[C@@H]1N(c2ccc(F)cc2)C(=O)N(c2ccc(F)cc2)C1(O)c1cccc(C#N)c1 (stereo partly drawn) [Compound 123-1, 3-((5S)-5-ethyl-1,3-bis(4-fluorophenyl)-4-hydroxy-2-oxoimidazolidin-4-yl)benzonitrile]
20 | < 1 |  | CCCC1N(c2ccc(Cl)cc2)C(=O)N(c2ccc(Cl)cc2)C1(O)c1cccc(CC)c1 (centres unmarked) [Compound 89, 1,3-bis(4-chlorophenyl)-4-(3-ethylphenyl)-4-hydroxy-5-propylimidazolidin-2-one]
21 | 1 to 10 |  | O=C1N(c2ccc(Cl)cc2)[C@H]([C@H]2CCCO2)C(O)(c2cccc(Cl)c2)N1c1ccc(Cl)cc1 (single isomer, unassigned) [Compound 117-2]
22 | 1 to 10 |  | CCc1c(-c2cccc(C#N)c2)n(-c2ccc(F)cc2)c(=O)n1-c1ccc(F)cc1 [Compound 252, 3-(5-ethyl-1,3-bis(4-fluorophenyl)-2-oxo-2,3-dihydro-1H-imidazol-4-yl)benzonitrile]
23 | < 1 |  | N#Cc1cccc(C2(O)CN(c3ccc(Cl)cc3)C(=O)N2c2ccc(Cl)cc2)c1 (centres unmarked) [Compound 63, 3-(1,3-bis(4-chlorophenyl)-4-hydroxy-2-oxoimidazolidin-4-yl)benzonitrile]
24 | 1 to 10 |  | CC(=O)c1cccc(C2(O)[C@H](C)N(c3ccc(Cl)cc3)C(=O)N2c2ccc(Cl)cc2)c1 (single isomer, unassigned) [Compound 136-1]
25 | < 1 |  | CCc1cccc(C2(O)C(C)N(c3ccc(Br)cc3)C(=O)N2c2ccc(Br)cc2)c1 (centres unmarked) [Compound 68, 1,3-bis(4-bromophenyl)-4-(3-ethylphenyl)-4-hydroxy-5-methylimidazolidin-2-one]
26 | < 1 |  | CCC[C@H]1N(c2ccc(Br)cc2)C(=O)N(c2ccc(Br)cc2)C1(O)c1cccc(C(F)(F)F)c1 (stereo partly drawn) [Compound 100-2, (5R)-1,3-bis(4-bromophenyl)-4-hydroxy-5-propyl-4-(3-(trifluoromethyl)phenyl)imidazolidin-2-one]
27 | 1 to 10 |  | Cc1cc(C)cc(C2(O)[C@@H](C)N(c3ccc(Br)cc3)C(=O)N2c2ccc(Br)cc2)c1 (some centres unmarked) [Example 42-2]
28 | < 1 |  | C#Cc1cccc(C2(O)CN(c3ccc(Cl)cc3)C(=O)N2c2ccc(Cl)cc2)c1 (centres unmarked) [Compound 60, 1,3-bis(4-chlorophenyl)-4-(3-ethynylphenyl)-4-hydroxyimidazolidin-2-one]
29 | < 1 |  | COC[C@H]1N(c2ccc(Cl)cc2)C(=O)N(c2ccc(Cl)cc2)C1(O)c1cccc(C(F)(F)F)c1 (stereo partly drawn) [Compound 92-2, (5R)-1,3-bis(4-chlorophenyl)-4-hydroxy-5-(methoxymethyl)-4-(3-(trifluoromethyl)phenyl)imidazolidin-2-one]
30 | 1 to 10 |  | CC[C@@H]1N(c2ccc(F)cc2)C(=O)N(c2ccc(F)cc2)C1(O)c1cccc(C(F)(F)F)c1 (single isomer, unassigned) [Compound 139-1]
31 | < 1 |  | CC(C)C1(c2cccc(OC(F)(F)F)c2)C(O)N(c2ccc(Cl)cc2)C(=O)N1c1ccc(Cl)cc1 (centres unmarked) [Example 220, 1,3-bis(4-chlorophenyl)-5-hydroxy-4-isopropyl-4-(3-(trifluoromethoxy)phenyl)imidazolidin-2-one]
32 | < 1 |  | C[C@@]1(c2cccc(Cl)c2)C(O)N(c2ccc(Cl)cc2)C(=O)N1c1ccc(Cl)cc1 (single isomer, unassigned) [Compound 149-2]
33 | 1 to 10 |  | Cc1cccc(-c2c(C)n(-c3ccc(Br)cc3)c(=O)n2-c2ccc(Br)cc2)c1 [Compound 263, 1,3-bis(4-bromophenyl)-4-methyl-5-(m-tolyl)-1,3-dihydro-2H-imidazol-2-one]
34 | < 1 |  | O=C1N(c2ccc(Cl)cc2)[C@H](C2CC2)C(O)(c2cccc(OC(F)F)c2)N1c1ccc(Cl)cc1 (stereo partly drawn) [Compound 233-2, (5R)-1,3-bis(4-chlorophenyl)-5-cyclopropyl-4-(3-(difluoromethoxy)phenyl)-4-hydroxyimidazolidin-2-one]
35 | < 1 |  | CCCC1N(c2ccc(Cl)cc2)C(=O)N(c2ccc(Cl)cc2)C1(O)c1cccc(C#N)c1 (centres unmarked) [Compound 101, 3-(1,3-bis(4-chlorophenyl)-4-hydroxy-2-oxo-5-propylimidazolidin-4-yl)benzonitrile]
36 | < 1 |  | Cc1cccc(C2(C)C(O)N(c3ccc(Cl)cc3)C(=O)N2c2ccc(Cl)cc2)c1 (centres unmarked) [Example 222, 1,3-bis(4-chlorophenyl)-5-hydroxy-4-methyl-4-(m-tolyl)imidazolidin-2-one]
37 | < 1 |  | Cc1cccc([C@]2(C)C(O)N(c3ccc(Cl)cc3)C(=O)N2c2ccc(Cl)cc2)c1 (single isomer, unassigned) [Example 222-2]
38 | < 1 |  | CCC[C@H]1N(c2ccc(Cl)cc2)C(=O)N(c2ccc(Cl)cc2)C1(O)c1cccc(C#N)c1 (stereo partly drawn) [Compound 101-2, 3-((5R)-1,3-bis(4-chlorophenyl)-4-hydroxy-2-oxo-5-propylimidazolidin-4-yl)benzonitrile]
